For one assay, the system named is bile duct PDX. As to the kind of experiment: Cell viability, bile duct PDX (panel statement). The format is cell-based. Particulars: summary of Table 3; read-out: IC50, bile duct PDX growth. As for the experimental part: (§1) PDX-derived cell cultures were obtained from tumors explanted from mice and isolated by mechanical and enzymatic dissociation. […] Cells were harvested and seeded in 96-wells plates at a density of 1.25 to 5×10^3 cells/well for cytotoxicity assays. Cells were incubated 48 h at 37° C. prior to addition of test molecules and vehicle (DMSO, 0.1%) at desired final concentrations. Cell viability was assessed before drugs' addition (To) and 5 days after test molecules addition by measuring ATP cell content using CellTiter-Glo® Luminescent Cell Viability Assay (Promega) according to the manufacturer's instructions. Luciferase activity was measured on a luminometer (PerkinElmer® EnVision™). Each concentration of compounds was tested in triplicate.
(§2) Viability was calculated as a percentage of ATP value compared to vehicle treated controls.
(§3) For PDX primary cell cultures, the tumour tissue was washed with PBS containing antibiotic-antimycotic and non-tumour tissue and necrotic tumour tissues were separated. The tumour tissue was transferred to a new dish and cut into 1˜2 mm^3 fragments, resuspended in RPMI-1640 medium and centrifuged at 1,200 rpm for 6 min at room temperature. The pelleted material was resuspended with 15 mL of Tumour Cell Digestion Solution and incubated at 37° C. for 1 hour with agitation. […]

The next assay has as its target T1, TRKA (Homo sapiens, UniProt P04629).
T1 construct: purchased Eurofins (KINOMEscan); host or cells: E. coli BL21-derived host (T7 phage) or HEK-293
As to the kind of experiment: KINOMEscan competition binding, TRKA. As for the experimental part: Selected compounds were screened for kinase inhibition using the KINOMEscan™ assay (Eurofins) which is based on a competition binding assay that quantitatively measures the ability of a compound to compete with an immobilized, active-site directed ligand. The assay was performed by combining three components: DNA-tagged kinase; immobilized ligand; and the test compound. The ability of the test compound to compete with the immobilized ligand was measured via quantitative PCR of the DNA tag.
Kinase-tagged T7 phage strains were prepared in an E. coli host derived from the BL21 strain. E. coli were grown to log-phase and infected with T7 phage and incubated with shaking at 32° C. until lysis. The lysates were centrifuged and filtered to remove cell debris. The remaining kinases were produced in HEK-293 cells and subsequently tagged with DNA for qPCR detection. Streptavidin-coated magnetic beads were treated with biotinylated small molecule ligands for 30 minutes at room temperature to generate affinity resins for kinase assays. […] Kds were determined using an 11-point 3-fold compound dilution series with three DMSO control points. […] The kinase concentration in the eluates was measured by qPCR. […]
Binding constants (Kds) were calculated with a standard dose-response curve using the Hill equation: Response=Background+[Signal−Background/1+(Kd^Hill Slope/Dose^Hill Slope)] […]

For the next assay, the system named is esophagus PDX. Description: Cell viability, esophagus PDX (panel statement). The format is cell-based. The note with it: text summary of Table 9; read-out: IC50, esophagus PDX growth. As for the experimental part:
as §1, §2, §3

pIC50, pKd: −log10 of the molar value.

T1 sequence (P04629 33-796): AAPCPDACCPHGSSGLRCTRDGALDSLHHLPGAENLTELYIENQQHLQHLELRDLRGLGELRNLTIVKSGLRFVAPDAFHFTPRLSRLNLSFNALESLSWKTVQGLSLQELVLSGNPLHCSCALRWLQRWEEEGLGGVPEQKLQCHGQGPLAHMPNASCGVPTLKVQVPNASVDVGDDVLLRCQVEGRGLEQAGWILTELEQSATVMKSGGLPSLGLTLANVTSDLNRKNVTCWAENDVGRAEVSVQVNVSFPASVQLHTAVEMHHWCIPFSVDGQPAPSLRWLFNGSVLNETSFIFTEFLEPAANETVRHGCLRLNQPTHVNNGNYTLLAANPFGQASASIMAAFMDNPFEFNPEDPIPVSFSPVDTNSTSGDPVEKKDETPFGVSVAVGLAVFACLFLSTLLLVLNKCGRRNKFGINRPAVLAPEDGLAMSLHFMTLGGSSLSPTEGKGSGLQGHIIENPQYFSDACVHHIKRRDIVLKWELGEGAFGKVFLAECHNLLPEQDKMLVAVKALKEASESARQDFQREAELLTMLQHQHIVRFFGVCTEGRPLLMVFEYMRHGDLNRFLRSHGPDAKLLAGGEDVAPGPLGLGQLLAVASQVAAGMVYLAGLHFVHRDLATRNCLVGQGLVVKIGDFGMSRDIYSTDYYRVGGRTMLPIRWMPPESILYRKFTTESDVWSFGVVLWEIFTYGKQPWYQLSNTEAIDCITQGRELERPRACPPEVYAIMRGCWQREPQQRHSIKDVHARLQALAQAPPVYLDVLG

Turning to `COc1c(O)ccc2c(=O)c(O)c(-c3ccc(CCCC[P+](c4ccccc4)(c4ccccc4)c4ccccc4)cc3)oc12` [SND190, (4-(4-(3,7-Dihydroxy-8-methoxy-4-oxo-4H1-chromen-2-yl)phenyl)butyl)triphenylphosphonium bromide], the pIC50 (in general, the IC50 on a negative log10 scale, so that one unit is a factor of ten) in the assay on bile duct PDX was above 5.00; with esophagus PDX it was above 4.70. The pKd (usually the Kd on a negative log10 scale, so that one unit is a factor of ten) on TRKA is 5.64.

Source of the values: patent US20240124503A1, “HETEROAROMATIC PHOSPHONIUM SALTS AND THEIR USE TREATING CANCER” (FLORATEK PHARMA S.A., priority 2021, published 2024).
